Results: patent publication US10202332B2, “Method for preparing 2-amino-N-(2,2,2-trifluoroethyl) acetamide” (E. I. du Pont de Nemours and Company, priority 2010, dated 2019)

Assay: Stability comparison for free base and salts: weight gain or loss on exposure to air in the laboratory
Format: physicochemical
Conditions: for hygroscopicity (in words): handling, exposure to air
Protocol: To further characterize the stability of the free amine and salts of 2-amino-N-(2,2,2-trifluoroethyl)acetamide the following experiments were performed. Samples of the free amine and salts were exposed to air in the laboratory for a period of time. Weight […] or loss compared to the original sample was determined

| sensitivity to air (in words) | % Weight gain (loss) (3 days in ambient atmosphere, parentheses = loss) | weight gain upon exposure to the ambient atmosphere (in words) | hygroscopicity (in words) | Compound |
| --- | --- | --- | --- | --- |
| sensitive to air | 4.65% | showed weight gain | hygroscopic | NCC(=O)NCC(F)(F)F [Free base, 2-amino-N-(2,2,2-trifluoroethyl)acetamide] |
|  |  | did not | not hygroscopic | Cl.NCC(=O)NCC(F)(F)F [Hydrochloride, 2-amino-N-(2,2,2-trifluoroethyl)acetamide hydrochloride] |
